Legend:
[1] = biological target: α4β4 nAChR (Rattus norvegicus, UniProt P09483+P12392); type: cell-based
[2] = biological target: α4β2 nAChR (Rattus norvegicus, UniProt P09483+P12390); type: cell-based
[3] = biological target: α6/α3β2β3 nAChR (α6/α3 chimera) (Rattus norvegicus, UniProt P04757+P12390+P12391+P43143); type: cell-based
[4] = biological target: α3β2 nAChR (Rattus norvegicus, UniProt P04757+P12390); type: cell-based
[5] = biological target: α2β2 nAChR (Rattus norvegicus, UniProt P12389+P12390); type: cell-based
[6] = biological target: α9α10 nAChR (Rattus norvegicus, UniProt P43144+Q9JLB5); type: cell-based
[7] = biological target: α7 nAChR (Rattus norvegicus, UniProt Q05941); type: cell-based
[8] = tested on: α6/α3β2β3 nAChR; details: cited from earlier work
[9] = tested on: α6/α3β4 nAChR; details: cited from earlier work
[10] = tested on: α3β2 nAChR; details: cited from earlier work
[11] = tested on: α9α10 nAChR; details: cited from earlier work

Chain of α9α10 nAChR (Rattus norvegicus, UniProt P43144+Q9JLB5) (P43144 26-479 limits assumed): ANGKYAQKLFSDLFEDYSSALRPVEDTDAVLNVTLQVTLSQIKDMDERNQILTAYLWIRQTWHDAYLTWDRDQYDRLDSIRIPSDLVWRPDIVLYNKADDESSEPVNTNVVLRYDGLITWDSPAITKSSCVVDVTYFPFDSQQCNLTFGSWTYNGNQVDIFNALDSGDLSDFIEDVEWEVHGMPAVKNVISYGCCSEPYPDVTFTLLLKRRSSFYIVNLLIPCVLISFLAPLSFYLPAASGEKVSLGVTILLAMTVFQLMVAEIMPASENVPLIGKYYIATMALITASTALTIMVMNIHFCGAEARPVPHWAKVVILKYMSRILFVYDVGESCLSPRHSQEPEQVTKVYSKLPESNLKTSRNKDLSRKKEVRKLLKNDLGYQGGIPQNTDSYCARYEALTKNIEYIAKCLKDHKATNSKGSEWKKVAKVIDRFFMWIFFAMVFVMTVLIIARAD
Chain of α9α10 nAChR (Rattus norvegicus, UniProt P43144+Q9JLB5) (Q9JLB5 25-447 limits assumed): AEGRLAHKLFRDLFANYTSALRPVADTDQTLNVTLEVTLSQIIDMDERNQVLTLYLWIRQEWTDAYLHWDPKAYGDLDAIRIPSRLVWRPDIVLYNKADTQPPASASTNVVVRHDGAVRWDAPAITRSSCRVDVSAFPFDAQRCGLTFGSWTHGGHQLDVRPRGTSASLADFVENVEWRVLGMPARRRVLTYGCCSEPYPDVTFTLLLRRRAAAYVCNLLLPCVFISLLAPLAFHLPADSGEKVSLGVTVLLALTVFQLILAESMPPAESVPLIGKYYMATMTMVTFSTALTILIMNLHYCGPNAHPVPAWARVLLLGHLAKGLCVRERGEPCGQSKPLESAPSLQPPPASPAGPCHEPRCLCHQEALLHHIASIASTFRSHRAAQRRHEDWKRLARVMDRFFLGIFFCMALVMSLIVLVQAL
Chain of α4β4 nAChR (P09483 31-630 limits assumed): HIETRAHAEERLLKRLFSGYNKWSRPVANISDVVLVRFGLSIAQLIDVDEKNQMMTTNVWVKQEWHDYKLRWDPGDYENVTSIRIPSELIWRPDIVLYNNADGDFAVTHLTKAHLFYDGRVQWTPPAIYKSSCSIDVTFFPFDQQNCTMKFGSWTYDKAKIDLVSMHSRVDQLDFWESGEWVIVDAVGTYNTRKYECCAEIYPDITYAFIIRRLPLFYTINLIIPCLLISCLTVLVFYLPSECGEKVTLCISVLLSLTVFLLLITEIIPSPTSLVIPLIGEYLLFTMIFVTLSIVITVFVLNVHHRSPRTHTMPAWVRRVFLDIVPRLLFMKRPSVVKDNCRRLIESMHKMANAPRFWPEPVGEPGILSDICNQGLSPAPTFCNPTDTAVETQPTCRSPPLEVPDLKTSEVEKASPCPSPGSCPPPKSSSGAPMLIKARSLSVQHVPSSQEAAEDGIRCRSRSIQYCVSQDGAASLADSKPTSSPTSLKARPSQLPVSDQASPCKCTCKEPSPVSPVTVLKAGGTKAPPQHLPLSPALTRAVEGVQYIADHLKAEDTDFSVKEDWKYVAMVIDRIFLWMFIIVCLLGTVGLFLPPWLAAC
Chain of α4β4 nAChR (P12392 22-495 limits assumed): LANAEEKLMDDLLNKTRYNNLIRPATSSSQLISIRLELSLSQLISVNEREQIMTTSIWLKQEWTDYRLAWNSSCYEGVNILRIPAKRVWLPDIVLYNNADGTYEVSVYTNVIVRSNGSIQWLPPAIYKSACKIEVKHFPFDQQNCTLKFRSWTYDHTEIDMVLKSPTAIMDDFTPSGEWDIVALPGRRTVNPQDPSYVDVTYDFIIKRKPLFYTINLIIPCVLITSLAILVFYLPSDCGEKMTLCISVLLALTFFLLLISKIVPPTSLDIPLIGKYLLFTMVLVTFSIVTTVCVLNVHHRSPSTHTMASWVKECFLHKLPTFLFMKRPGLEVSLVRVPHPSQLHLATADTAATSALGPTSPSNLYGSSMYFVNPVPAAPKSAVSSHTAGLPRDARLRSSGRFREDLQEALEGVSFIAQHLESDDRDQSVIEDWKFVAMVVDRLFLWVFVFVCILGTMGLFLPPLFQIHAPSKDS
Chain of α7 nAChR (Q05941 23-502 limits assumed): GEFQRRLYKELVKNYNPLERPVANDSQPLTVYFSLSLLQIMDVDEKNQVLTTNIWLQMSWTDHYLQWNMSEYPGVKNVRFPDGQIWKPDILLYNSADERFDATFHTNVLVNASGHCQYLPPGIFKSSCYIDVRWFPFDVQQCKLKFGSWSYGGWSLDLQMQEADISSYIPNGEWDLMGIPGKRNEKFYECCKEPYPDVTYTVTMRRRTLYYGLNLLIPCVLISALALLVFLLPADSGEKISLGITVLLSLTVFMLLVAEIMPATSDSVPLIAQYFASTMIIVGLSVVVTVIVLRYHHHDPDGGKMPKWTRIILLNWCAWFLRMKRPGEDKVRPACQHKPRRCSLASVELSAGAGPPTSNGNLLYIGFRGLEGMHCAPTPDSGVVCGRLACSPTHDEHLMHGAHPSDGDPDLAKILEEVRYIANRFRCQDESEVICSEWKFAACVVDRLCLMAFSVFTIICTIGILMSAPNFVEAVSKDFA
Chain of α3β2 nAChR (Rattus norvegicus, UniProt P04757+P12390) (P04757 26-499 limits assumed): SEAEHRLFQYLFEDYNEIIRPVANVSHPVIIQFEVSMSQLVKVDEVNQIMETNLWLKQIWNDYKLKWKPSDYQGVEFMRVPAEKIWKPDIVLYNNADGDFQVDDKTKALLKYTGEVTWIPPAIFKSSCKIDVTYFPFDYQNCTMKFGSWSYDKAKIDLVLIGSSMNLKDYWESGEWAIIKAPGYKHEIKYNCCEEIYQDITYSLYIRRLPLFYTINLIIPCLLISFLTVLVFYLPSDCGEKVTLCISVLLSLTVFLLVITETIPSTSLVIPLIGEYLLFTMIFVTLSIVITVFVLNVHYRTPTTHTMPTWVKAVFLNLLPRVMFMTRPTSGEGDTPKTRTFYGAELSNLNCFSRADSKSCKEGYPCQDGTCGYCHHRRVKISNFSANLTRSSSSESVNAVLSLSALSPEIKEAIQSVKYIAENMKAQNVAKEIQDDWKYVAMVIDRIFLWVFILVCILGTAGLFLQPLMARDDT
Chain of α3β2 nAChR (Rattus norvegicus, UniProt P04757+P12390) (P12390 25-500 limits assumed): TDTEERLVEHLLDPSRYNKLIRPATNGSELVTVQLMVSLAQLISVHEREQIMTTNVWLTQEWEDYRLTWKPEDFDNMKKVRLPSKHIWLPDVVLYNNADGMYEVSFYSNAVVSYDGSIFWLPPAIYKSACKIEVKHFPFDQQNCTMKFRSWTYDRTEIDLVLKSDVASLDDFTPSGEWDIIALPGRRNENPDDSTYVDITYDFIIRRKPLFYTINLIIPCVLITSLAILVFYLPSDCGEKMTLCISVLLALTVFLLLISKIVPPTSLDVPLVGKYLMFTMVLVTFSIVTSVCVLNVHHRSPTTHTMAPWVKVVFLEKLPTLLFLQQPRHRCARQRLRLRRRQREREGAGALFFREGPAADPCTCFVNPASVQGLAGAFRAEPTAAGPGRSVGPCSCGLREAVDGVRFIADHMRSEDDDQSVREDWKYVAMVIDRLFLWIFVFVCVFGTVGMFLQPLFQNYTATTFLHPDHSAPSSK
Chain of α4β2 nAChR (P09483 31-630 limits assumed): as the sequence (P09483 31-630 limits assumed) above
Chain of α4β2 nAChR (P12390 25-500 limits assumed): as the sequence (P12390 25-500 limits assumed) above
Chain of α2β2 nAChR (P12389 28-511 limits assumed): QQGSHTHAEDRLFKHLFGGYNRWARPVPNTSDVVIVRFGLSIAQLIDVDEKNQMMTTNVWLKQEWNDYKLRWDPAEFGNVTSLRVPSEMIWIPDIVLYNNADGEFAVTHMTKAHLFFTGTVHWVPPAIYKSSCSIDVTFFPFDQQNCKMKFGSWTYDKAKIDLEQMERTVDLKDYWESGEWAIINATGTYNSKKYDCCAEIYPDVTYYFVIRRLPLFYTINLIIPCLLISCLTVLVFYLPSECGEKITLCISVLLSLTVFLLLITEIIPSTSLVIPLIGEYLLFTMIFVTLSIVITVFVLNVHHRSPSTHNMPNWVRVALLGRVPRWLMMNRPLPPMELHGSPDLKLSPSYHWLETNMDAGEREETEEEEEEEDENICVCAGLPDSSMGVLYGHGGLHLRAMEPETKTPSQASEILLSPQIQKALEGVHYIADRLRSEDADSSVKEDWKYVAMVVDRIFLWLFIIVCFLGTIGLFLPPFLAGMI
Chain of α2β2 nAChR (P12390 25-500 limits assumed): as the sequence (P12390 25-500 limits assumed) above

Compound	block at 10^−5 M [1]	block of ACh-evoked currents [1]	block at 10^−5 M [2]	block at 10^−5 M [3]	block at 10^−5 M [4]	block of ACh-evoked currents [4]	block at 10^−5 M [5]	block at 10^−5 M [6]	block of ACh-evoked currents [6]	block at 10^−5 M [7]	block of ACh-evoked currents [7]	IC50 [8] [nM]	IC50 [9] [nM]	IC50 [10] [µM]	IC50 [11] [nM]
CC[C@H](C)[C@@H]1NC(=O)[C@@H]2CCCN2C(=O)[C@H](CO)NC(=O)[C@H](CCSC)NC(=O)[C@H](C)NC(=O)[C@H](CO)NC(=O)[C@@H]2CSSC[C@H](NC(=O)CN)C(=O)N[C@@H](CSSC[C@@H](C(N)=O)NC1=O)C(=O)N[C@@H](CO)C(=O)N[C@@H](Cc1c[nH]cn1)C(=O)N1CCC[C@H]1C(=O)N[C@@H](C(C)C)C(=O)N2 [TxID]	c less than 50% block at 10^−5 M. All receptors are rat except for α1β1δε, which is mouse.	no inhibition	c less than 50% block at 10^−5 M. All receptors are rat except for α1β1δε, which is mouse.	c less than 50% block at 10^−5 M. All receptors are rat except for α1β1δε, which is mouse.	c less than 50% block at 10^−5 M. All receptors are rat except for α1β1δε, which is mouse.	no inhibition	c less than 50% block at 10^−5 M. All receptors are rat except for α1β1δε, which is mouse.	c less than 50% block at 10^−5 M. All receptors are rat except for α1β1δε, which is mouse.	no inhibition	c less than 50% block at 10^−5 M. All receptors are rat except for α1β1δε, which is mouse.	no inhibition				
Vc1.1												140	980	7.3	19

Source: article PMC4033315 (Journal of medicinal chemistry, 2013)
